Patent publication US8012982B2, “Modulators of HCV replication” (priority 2004, dated 2011)
Where two headings read alike, the source gives them in different places.

Legend:
[1] = tested on: HCV replicon in HBI10A cells; assay: microbe, parasite or virus in culture; format: cell-based; settings: Hepatitis C virus
[2] = tested on: HCV replicon in resistant clone 10AB2; assay: microbe, parasite or virus in culture; format: cell-based; settings: Hepatitis C virus, Cell-ELISA, read-out: IC50 Compound (Ib)
[3] = tested on: HCV replicon in resistant clone 10AB3; assay: microbe, parasite or virus in culture; format: cell-based; settings: Hepatitis C virus, Cell-ELISA, read-out: IC50 Compound (Ib)
[4] = tested on: HCV replicon in resistant clone 10AB7; assay: microbe, parasite or virus in culture; format: cell-based; settings: Hepatitis C virus, Cell-ELISA, read-out: IC50 Compound (Ib)
[5] = tested on: HCV replicon in resistant clone 10AB11; assay: microbe, parasite or virus in culture; format: cell-based; settings: Hepatitis C virus, Cell-ELISA, read-out: IC50 Compound (Ib)
[6] = tested on: pHCVNeo17.m10 replicon; assay: microbe, parasite or virus in culture; format: cell-based; settings: pHCVNeo17.m10 replicon in 10AIFN cells, cultured 4 days, Cell-ELISA, read-out: Replicon Inhibition Range IC50
[7] = tested on: pHCVNeo17.SI replicon; assay: microbe, parasite or virus in culture; format: cell-based; settings: Hepatitis C virus, 96 h; subgenomic pHCVNeo17.SI, Con1, S2204I; 10AIFN cells, four days after transfection
[8] = tested on: pHCVNeo17.RG replicon; assay: microbe, parasite or virus in culture; format: cell-based; settings: Hepatitis C virus, 96 h; subgenomic pHCVNeo17.RG, Con1, R2884G; 10AIFN cells, four days after transfection
[9] = tested on: pBK-RMSI replicon; assay: microbe, parasite or virus in culture; format: cell-based; settings: Hepatitis C virus, 96 h; subgenomic pBK-RMSI, BK, R1496M + S2204I; 10AIFN cells, four days after transfection
[10] = tested on: pFL.m10 genomic replicon (adapted full length HCV genome); format: cell-based, HCV isolate Con1
[11] = tested on: pHCVNeo17.wt replicon; format: cell-based; settings: for Replicon Activation Yes/No: pHCVNeo17.wt replicon in 10AIFN cells, cultured 4 days, Cell-ELISA
[12] = tested on: pHCVNeo17.m5 replicon; assay: microbe, parasite or virus in culture; format: cell-based; settings: Hepatitis C virus; replicon pHCVNeo17.m5: K@2039; read-out: Cmpd Ib IC50
[13] = tested on: pHCVNeo17.m30 replicon; format: cell-based; settings: replicon pHCVNeo17.m30: H2057R
[14] = tested on: pHCVNeo17.m35 replicon; format: cell-based; settings: replicon pHCVNeo17.m35: Y2065H
[15] = tested on: pHCVNeo17.m36 replicon; assay: microbe, parasite or virus in culture; format: cell-based; settings: Hepatitis C virus; replicon pHCVNeo17.m36: K@2039, Y2065H; read-out: Cmpd Ib IC50
[16] = tested on: pHCVNeo17.m50 replicon; assay: microbe, parasite or virus in culture; format: cell-based; settings: Hepatitis C virus; replicon pHCVNeo17.m50: K@2039, R2129W; read-out: Cmpd Ib IC50
[17] = tested on: pHCVNeo17.m21 replicon; assay: microbe, parasite or virus in culture; format: cell-based; settings: Hepatitis C virus; replicon pHCVNeo17.m21: K@2039, S2404P; read-out: Cmpd Ib IC50
[18] = tested on: pHCVNeo17.m29 replicon; assay: microbe, parasite or virus in culture; format: cell-based; settings: Hepatitis C virus, read-out: Cmpd Ib IC50 (μM)
[19] = tested on: HCV replicons derived from the Con1 isolate in human HeLa cells; format: cell-based
[20] = tested on: HCV replicons derived from the Con1 isolate in mouse hepatoma cell line Hepa1-6; format: cell-based
[21] = tested on: non-adapted full length Con1 genomes; format: cell-based; settings: lesser extent than with the corresponding replicons
[22] = tested on: non-adapted replicons derived from the BK isolate of HCV; format: cell-based
[23] = target: NS5A protein (Hepatitis C virus genotype 1b, UniProt Q9WMX2, INS2039K); format: cell-based; settings: HBI10A cells, 2 μM compound (Ib), pulse-chase
[24] = tested on: HCV replicons in resistant cell clones; format: cell-based; settings: fold increase of IC50
[25] = relative to concentrations effective on the replicon
[26] = tested on: cell proliferation; settings: relative to concentrations effective on the replicon

CC(C)(C)OC(=O)N1CCN(c2ccc(C(=O)Nc3ccc(O)cc3)cc2)CC1 [Example 101, tert-butyl 4-(4-{[(4-hydroxyphenyl)amino]carbonyl}phenyl)piperazine-1-carboxylate]
IC50 ([1]; HBI10A replicon cells, read-out: IC50, dose-dependent inhibition of HCV replication): 120 ± 60 nM | IC50 ([1]; parental clone HBI10A, Cell-ELISA, read-out: IC50 Compound (Ib)): 100 ± 50 nM | IC50 [2]: > 2000 nM | IC50 [3]: > 2000 nM | IC50 [4]: > 2000 nM | IC50 [5]: > 2000 nM | IC50 ([6]; Hepatitis C virus, 96 h): < 1000 nM | IC50 [7]: 100 nM | IC50 [8]: < 50 nM | IC50 [9]: 650 nM | Inhibition of replication of an adapted full length HCV genome [10]: inhibited with comparable potency | Replicon Activation Yes/No [11]: Yes | Cmpd Ib IC50 (μM) ([11]; replicon pHCVNeo17.Wt, no mutations): ^bactivation | IC50 [12]: 100 nM | Cmpd Ib IC50 (μM) [13]: activation | Cmpd Ib IC50 (μM) [14]: No effect | IC50 [15]: > 2000 nM | IC50 [16]: > 2000 nM | IC50 [17]: 38 nM | IC50 [18]: > 2 µM | Inhibition of HCV replicons in HeLa cells [19]: inhibited with comparable potencies | Inhibition of HCV replicons in Hepa1-6 cells [20]: inhibited with comparable potencies | Stimulation of replication of non-adapted full length Con1 genomes [21]: stimulated replication | Activation of replication of non-adapted BK replicons [22]: activated replication | Conversion of NS5A p56 into hyperphosphorylated p58 [23]: the rate and the extent of conversion of the p56 into p58 were reduced | IC50 in resistant cell clones relative to parental cells [24]: at least ten times higher | Toxicity, MTT cytotoxicity assay [25]: only at concentrations two orders of magnitude higher than those effective on the replicon | Inhibition of cell proliferation, 14C thymidine incorporation [26]: only at concentrations two orders of magnitude higher than those effective on the replicon

CC(C)(C)OC(=O)N1CCN(c2ccc(C(=O)Nc3cccc(Br)c3)cc2)CC1 [Example 103, tert-butyl 4-(4-{[(3-bromophenyl)amino]carbonyl}phenyl)piperazine-1-carboxylate]
IC50 ([6]; Hepatitis C virus, 96 h): < 1000 nM | Replicon Activation Yes/No [11]: No

CC(=O)c1cccc(NC(=O)c2ccc(N3CCN(C(=O)OC(C)(C)C)CC3)cc2)c1 [Example 108, tert-butyl 4-(4-{[(3-acetylphenyl)amino]carbonyl}phenyl)piperazine-1-carboxylate]
IC50 ([6]; Hepatitis C virus, 96 h): > 1000 nM | Replicon Activation Yes/No [11]: No

CC(C)(C)OC(=O)N1CCN(c2ccc(C(=O)Nc3ccc(C(=O)c4ccccc4)cc3)cc2)CC1 [Example 112, tert-butyl 4-(4-{[(4-benzoylphenyl)amino]carbonyl}phenyl)piperazine-1-carboxylate]
IC50 ([6]; Hepatitis C virus, 96 h): < 1000 nM | Replicon Activation Yes/No [11]: No

C=Cc1ccc(NC(=O)c2ccc(N3CCN(C(=O)OC(C)(C)C)CC3)cc2)cc1 [Example 115, tert-butyl 4-(4-{[(4-vinylphenyl)amino]carbonyl}phenyl)piperazine-1-carboxylate]
IC50 ([6]; Hepatitis C virus, 96 h): > 1000 nM | Replicon Activation Yes/No [11]: No

CC(C)(C)OC(=O)N1CCN(c2ccc(C(=O)Nc3ccc(/C=C/c4ccc(O)cc4)cc3)cc2)CC1 [Example 116, tert-butyl 4-{4-[({4-[(E)-2-(4-hydroxyphenyl)vinyl]phenyl}amino)carbonyl]phenyl}piperazine-1-carboxylate]
IC50 ([6]; Hepatitis C virus, 96 h): < 1000 nM | Replicon Activation Yes/No [11]: No

CC(=O)Oc1ccc(NC(=O)c2ccc(N3CCN(C(=O)OC(C)(C)C)CC3)cc2)cc1 [Example 123, tert-butyl 4-[4-({[4-(acetyloxy)phenyl]amino}carbonyl)phenyl]piperazine-1-carboxylate]
IC50 ([6]; Hepatitis C virus, 96 h): < 1000 nM | Replicon Activation Yes/No [11]: Yes

CC(C)COC(=O)N1CCN(c2ccc(C(=O)Nc3ccc(O)cc3)cc2)CC1 [Example 201, isobutyl 4-(4-{[(4-hydroxyphenyl)amino]carbonyl}phenyl)piperazine-1-carboxylate]
IC50 ([6]; Hepatitis C virus, 96 h): > 1000 nM | Replicon Activation Yes/No [11]: No

O=C(Nc1ccc(O)cc1)c1ccc(N2CCN(C(=O)OCc3ccccc3)CC2)cc1 [Example 216, benzyl 4-(4-{[(4-hydroxyphenyl)amino]carbonyl}phenyl)piperazine-1-carboxylate]
IC50 ([6]; Hepatitis C virus, 96 h): < 1000 nM | Replicon Activation Yes/No [11]: Yes

CC(C)(C)NC(=O)N1CCN(c2ccc(C(=O)Nc3ccc(O)cc3)cc2)CC1 [Example 302, N-(tert-butyl)-4-(4-{[(4-hydroxyphenyl)amino]carbonyl}phenyl)piperazine-1-carboxamide]
IC50 ([6]; Hepatitis C virus, 96 h): < 1000 nM | Replicon Activation Yes/No [11]: Yes

COc1ccc(CNC(=O)N2CCN(c3ccc(C(=O)Nc4ccc(O)cc4)cc3)CC2)cc1 [Example 303, 4-(4-{[(4-hydroxyphenyl)amino]carbonyl}phenyl)-N-(4-methoxybenzyl)piperazine-1-carboxamide]
IC50 ([6]; Hepatitis C virus, 96 h): < 1000 nM | Replicon Activation Yes/No [11]: Yes

C[C@@H](NC(=O)N1CCN(c2ccc(C(=O)Nc3ccc(O)cc3)cc2)CC1)c1ccccc1 [Example 306, 4-(4-{[(4-hydroxyphenyl)amino]carbonyl}phenyl)-N-[(1R)-1-phenylethyl] piperazine-1-carboxamide]
IC50 [6]: < 1000 nM | Replicon Activation Yes/No [11]: No

O=C(Nc1ccc(O)cc1)c1ccc(N2CCN(C(=O)C3CCCCC3)CC2)cc1 [Example 401, 4-[4-(cyclohexylcarbonyl)piperazin-1-yl]-N-(4-hydroxyphenyl)benzamide]
IC50 ([6]; Hepatitis C virus, 96 h): < 1000 nM | Replicon Activation Yes/No [11]: No

CC(C)(C)C(=O)N1CCN(c2ccc(C(=O)Nc3ccc(O)cc3)cc2)CC1 [Example 403, 4-[4-(2,2-dimethylpropanoyl)piperazin-1-yl]-N-(4-hydroxyphenyl)benzamide]
IC50 ([6]; Hepatitis C virus, 96 h): < 1000 nM | Replicon Activation Yes/No [11]: No

O=C(Nc1ccc(O)cc1)c1ccc(N2CCN(S(=O)(=O)/C=C/c3ccccc3)CC2)cc1 [Example 503, N-(4-hydroxyphenyl)-4-(4-{[(E)-2-phenylvinyl]sulfonyl}piperazin-1-yl)benzamide]
IC50 ([6]; Hepatitis C virus, 96 h): > 1000 nM | Replicon Activation Yes/No [11]: No

CC(C)(C)OC(=O)N1CCC(c2ccc(C(=O)Nc3ccc(O)cc3)cc2)CC1 [Example 602, tert-butyl 4-(4-{[(4-hydroxyphenyl)amino]carbonyl}phenyl)piperidine-1-carboxylate]
IC50 ([6]; Hepatitis C virus, 96 h): > 1000 nM | Replicon Activation Yes/No [11]: No

CC(C)(C)OC(=O)N1CCN(c2ccc(NC(=O)c3ccc(O)cc3)cc2)CC1 [Example 603, tert-butyl 4-{4-[(4-hydroxybenzoyl)amino]phenyl}piperazine-1-carboxylate]
IC50 ([6]; Hepatitis C virus, 96 h): > 1000 nM | Replicon Activation Yes/No [11]: No
